Source: patent publication US20210395210A1, “INHIBITION OF BACTERIAL CHAPERONIN SYSTEMS” (THE TRUSTEES OF INDIANA UNIVERSITY, priority 2018, published 2021)

Key:
E. coli GroEL/ES [1] = target: T1, E. coli GroEL/ES (Escherichia coli, UniProt P0A6F5); experiment: GroEL/ES-mediated dRho refolding assay; format: biochemical
T1 construct: made in house; host or cells: GroEL in E. coli DH5α; GroES in E. coli BL21 (DE3)
Method: Reagent preparation: For this assay, five primary reagent stocks were prepared: 1) GroEUES-dRho binary complex stock; 2) ATP initiation stock; 3) thiocyanate enzymatic assay stock; 4) formaldehyde quench stock; 5) ferric nitrate reporter stock. Denatured rhodanese (dRho) was prepared by 3-fold dilution of rhodanese (Roche product #R1756, diluted to 10 mg/mL with H2O) with denaturant buffer (12 M Urea, 50 mM Tris-HCl, pH 7.4, and 10 mM DTT). Rhodanese was completely denatured by incubating at room temperature for 45 min. The binary complex solution was prepared by slowly adding the dRho stock to a stirring stock of concentrated GroEL in modified folding buffer (50 mM Tris-HCl, pH 7.4, 50 mM KCl, 10 mM MgCl2, 5 mM Na2S2O3, and 1 mM DTT). The solution was centrifuged at 16,000×g for 5 minutes, and the supernatant was collected and added to a solution of GroES in modified folding buffer to give final protein concentrations of 100 nM GroEL, 120 nM GroES, and 80 nM dRho. The binary complex stock was prepared immediately prior to use. For the ATP initiation stock, ATP solid was diluted into modified folding buffer to a final concentration of 2.0 mM. The thiocyanate enzymatic assay stock was prepared to contain 70 mM KH2PO4, 80 mM KCN, and 80 mM Na2S2O3 in water. The formaldehyde quench solution contained 30% formaldehyde in water. The ferric nitrate reporter stock contained 8.5% w/v Fe(NO3)3 and 11.3% v/v HNO3 in water.
Assay Protocol: First, 10 μL aliquots of the GroEL/ES-dRho complex stock were dispensed into clear, 384-well polystyrene plates. […] The chaperonin-mediated refolding cycle was initiated by addition of 10 μL of ATP stock (reagent concentrations during refolding cycle: 50 nM GroEL, 60 nM GroES, 40 nM dRho, 1 mM ATP, and compounds of 250 μM to 114 nM, 3-fold dilution series). After incubating for 45 minutes at 37° C. for the refolding cycle, 30 μL of the thiocyanate enzymatic assay stock was added and incubated for 60 min at R.T. for the refolded rhodenase enzymatic reporter reaction. The reporter reaction was quenched by adding 10 μL of the formaldehyde quench stock, and then 40 μL of the ferric nitrate reporter stock was added to quantify the amount of thiocyanate produced during the enzymatic reporter reaction, which is proportional to the amount of dRho refolded by GroEL/ES. After incubating at R.T. for 15 min, the absorbance by Fe(SCN)3 was measured at 460 nm using a Molecular Devices SpectraMax Plus384 microplate reader. A second set of baseline control plates were prepared analogously, but without GroEL/ES-dRho protein binary solution, to correct for possible interference from compound absorbance or turbidity. […] Results presented represent the averages of IC50 values obtained from at least quadriplicate (duplicate of duplicate) replicates.
(§1) After generating the compound library, we next employed a series of well-established biochemical assays to evaluate compound inhibitory effects against the GroEUES chaperonin system (See FIG. 6 and FIG. 7). We used E. coli GroEUES as the surrogate chaperonin system for refolding of the reporter enzymes malate dehydrogenase (MDH) and rhodanese (Rho). Briefly, binary complexes are formed between GroEL and denatured MDH or Rho, which are then refolded to their native states upon addition of ATP and the GroES co-chaperonin. Enzymatic activities of refolded native MDH or Rho act as coupled reporters of GroEUES refolding functions since in the presence of chaperonin inhibitors, no functional reporter enzymes are generated.

E. coli GroEL/ES [2] = target: T1, E. coli GroEL/ES; experiment: GroEL/ES-mediated dMDH refolding assay; format: biochemical; settings: for log(IC50) GroEL/ES-dMDH Refolding: log of IC50 (μM scale), with standard deviation; for inhibition in the GroEL/ES-mediated refolding assays (in words): dMDH and dRho refolding assays; for selectivity for E. coli GroEL/ES over human HSP60/10 (in words): GroEL/ES-dMDH vs HSP60/10-dMDH IC50
Method: Reagent preparation: For these assays, four primary reagent stocks were prepared: 1) GroEUES-dMDH or HSP60/10-dMDH binary complex stock; 2) ATP initiation stock; 3) EDTA quench stock; 4) MDH enzymatic assay stock. Denatured MDH (dMDH) was prepared by 2-fold dilution of MDH (5 mg/ml, soluble pig heart MDH from Roche, product #10127248001) with denaturant buffer (7 M guanidine-HCl, 200 mM Tris, pH 7.4, and 50 mM DTT). MDH was completely denatured by incubating at room temperature for 45 min. The binary complex solutions were prepared by slowly adding the dMDH stock to a stirring stock with GroEL (or HSP60) in folding buffer (50 mM Tris-HCl, pH 7.4, 50 mM KCl, 10 mM MgCl2, and 1 mM DTT), followed by addition of GroES (or HSP10). The binary complex stocks were prepared immediately prior to dispensing into the assay plates and had final protein concentrations of 83.3 nM GroEL (Mr 800 kDa) or HSP60 (Mr 400 kDa), 100 nM GroES or HSP10 (Mr 70 kDa), and 20 nM dMDH in folding buffer. For the ATP initiation stock, ATP solid was diluted into folding buffer to a final concentration of 2.5 mM. Quench solution contained 600 mM EDTA (pH 8.0). The MDH enzymatic assay stock consisted of 20 mM sodium mesoxalate and 2.4 mM NADH in reaction buffer (50 mM Tris-HCl, pH 7.4, 50 mM KCl, and 1 mM DTT).
Assay Protocol: First, 30 μL aliquots of the GroEL/ES-dMDH or HSP60/10-dMDH binary complex stocks were dispensed into clear, 384-well polystyrene plates. […] The chaperonin-mediated refolding cycles were initiated by addition of 20 μL of ATP stock (reagent concentrations during refolding cycle: 50 nM GroEL or HSP60, 60 nM GroES or HSP10, 12 nM dMDH, 1 mM ATP, and compounds of 100 μM to 46 nM, 3-fold dilution series). The refolding reactions were incubated at 37° C. […] Next, the assay was quenched by addition of 10 μL of the EDTA to final concentration of 100 mM. […] A340 nm measurements were recorded at 0.5 minutes (start point) and at successive time points until the amount of NADH consumed reached ˜90% (end point, generally between 20-35 minutes). The differences between the start and end point A340 values were used to calculate the % inhibition of the GroEL/ES or HSP60/10 machinery by the compounds. […] Results presented represent the averages of IC50 values obtained from at least quadriplicate (duplicate of duplicate) replicates.
as §1

[3] = log of IC50 (μM scale), with standard deviation, read-out: log(IC50) GroEL/ES-dRho Refolding (converted)
[4] = read-out: Biochemical Assay IC50 GroEL/ES-dRho Refolding
[5] = read-out: Biochemical Assay IC50 GroEL/ES-dMDH refolding
[6] = log of IC50 (μM scale), with standard deviation

T1 sequence (P0A6F5 2-548): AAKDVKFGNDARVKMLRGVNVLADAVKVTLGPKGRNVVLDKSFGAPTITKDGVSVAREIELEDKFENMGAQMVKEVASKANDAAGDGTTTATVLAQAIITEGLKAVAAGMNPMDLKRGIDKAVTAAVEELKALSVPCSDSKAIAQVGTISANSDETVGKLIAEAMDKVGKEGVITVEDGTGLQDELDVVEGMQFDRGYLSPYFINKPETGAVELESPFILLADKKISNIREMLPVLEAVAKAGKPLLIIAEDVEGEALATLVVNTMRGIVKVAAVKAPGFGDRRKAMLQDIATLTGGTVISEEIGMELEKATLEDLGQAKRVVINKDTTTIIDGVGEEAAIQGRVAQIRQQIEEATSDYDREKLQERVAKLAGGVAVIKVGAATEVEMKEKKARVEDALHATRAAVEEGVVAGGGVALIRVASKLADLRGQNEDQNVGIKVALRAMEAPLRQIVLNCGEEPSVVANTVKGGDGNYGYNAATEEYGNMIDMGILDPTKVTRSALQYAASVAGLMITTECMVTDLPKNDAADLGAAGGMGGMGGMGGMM

Row | Compound | IC50 (E. coli GroEL/ES [1]; [3]) [µM] | IC50 (E. coli GroEL/ES [1]; [4]) [µM] | log(IC50) GroEL/ES-dMDH Refolding (E. coli GroEL/ES [2]) | IC50 (E. coli GroEL/ES [2]; [5]) [µM] | log(IC50) GroEL/ES-dRho Refolding (E. coli GroEL/ES [1]; [6]) | inhibition in the GroEL/ES-mediated refolding assays (in words) (E. coli GroEL/ES [2]) | selectivity for E. coli GroEL/ES over human HSP60/10 (in words) (E. coli GroEL/ES [2]) | IC50 (E. coli GroEL/ES [1]) [µM] | IC50 (E. coli GroEL/ES [2]) [µM]
1 | O=C(Nc1ccc(Sc2nc3ccccc3s2)c(Cl)c1)c1cc(Br)cc(Br)c1O [Compound 1, N-(4-(Benzo[d]thiazol-2-ylthio)-3-chlorophenyl)-3,5-dibromo-2-hydroxybenzamide] | 1.55 | 1.5 | 0.23 ± 0.28 | 1.7 |  |  |  |  | 
2 | O=C(Nc1ccc(Sc2nc3ccccc3s2)c(Cl)c1)c1cccc(Br)c1O [Compound 2, N-(4-(Benzo[d]thiazol-2-ylthio)-3-chlorophenyl)-3-bromo-2-hydroxybenzamide] |  | 3.8 | 0.98 ± 0.23 | 9.5 | 0.58 ± 0.15 | moderate to potent inhibitors |  |  | 
3 | O=C(Nc1ccc(Sc2nc3ccccc3s2)c(Cl)c1)c1cc(Br)ccc1O [Compound 3, N-(4-(Benzo[d]thiazol-2-ylthio)-3-chlorophenyl)-5-bromo-2-hydroxybenzamide] |  | 11 | 1.57 ± 0.35 | 37 | 1.04 ± 0.38 | moderate to potent inhibitors | selectively inhibit E. coli GroEUES over human HSP60/10 |  | 
4 | O=C(Nc1ccc(Sc2nc3ccccc3s2)c(Cl)c1)c1ccccc1O [Compound 4, N-(4-(Benzo[d]thiazol-2-ylthio)-3-chlorophenyl)-2-hydroxybenzamide] |  | 63 | 1.62 ± 0.32 | 42 | 1.80 ± 0.27 |  | selectively inhibit E. coli GroEUES over human HSP60/10 |  | 
5 | O=C(Nc1ccc(Sc2nc3ccccc3s2)cc1)c1cc(Br)cc(Br)c1O [Compound 5, N-(4-(Benzo[d]thiazol-2-ylthio)phenyl)-3,5-dibromo-2-hydroxybenzamide] | 1.32 | 1.3 | 0.43 ± 0.19 | 2.7 |  |  |  |  | 
6 | O=C(Nc1ccc(Sc2nc3ccccc3s2)cc1)c1cccc(Br)c1O [Compound 6, N-(4-(Benzo[d]thiazol-2-ylthio)phenyl)-3-bromo-2-hydroxybenzamide] | 13.8 | 14 | 1.52 ± 0.21 | 33 |  | moderate to potent inhibitors |  |  | 
7 | O=C(Nc1ccc(Sc2nc3ccccc3s2)cc1)c1cc(Br)ccc1O [Compound 7, N-(4-(Benzo[d]thiazol-2-ylthio)phenyl)-5-bromo-2-hydroxybenzamide] |  | 30 | 1.58 ± 0.34 | 38 | 1.48 ± 0.11 | moderate to potent inhibitors | selectively inhibit E. coli GroEUES over human HSP60/10 |  | 
8 | O=C(Nc1ccc(Sc2nc3ccccc3s2)cc1)c1ccccc1O [Compound 8, N-(4-(Benzo[d]thiazol-2-ylthio)phenyl)-2-hydroxybenzamide] |  | 87 | 1.60 ± 0.26 | 40 | 1.94 ± 0.23 |  | selectively inhibit E. coli GroEUES over human HSP60/10 |  | 
9 | O=C(Nc1cccc(Cl)c1)c1cc(Br)ccc1O [Compound 11, 5-Bromo-N-(3-chlorophenyl)-2-hydroxybenzamide] |  |  | >2 |  | >2 |  |  | > 100 | > 100
10 | O=C(Nc1cccc(Cl)c1)c1ccccc1O [Compound 12, N-(3-Chlorophenyl)-2-hydroxybenzamide] |  |  | >2 |  | >2 |  |  | > 100 | > 100
11 | O=C(Nc1ccccc1)c1cccc(Br)c1O [Compound 14, 3-Bromo-2-hydroxy-N-phenylbenzamide] |  |  | >2 |  | >2 |  |  | > 100 | > 100
12 | O=C(Nc1ccccc1)c1cc(Br)ccc1O [Compound 15, 5-Bromo-2-hydroxy-N-phenylbenzamide] |  |  | >2 |  | >2 |  |  | > 100 | > 100
13 | O=C(Nc1ccc(Sc2nc3ccccc3s2)c(Cl)c1)c1ccccc1 [Compound 19, N-(4-(Benzo[d]thiazol-2-ylthio)-3-chlorophenyl)benzamide] |  |  |  |  |  |  |  | > 100 | > 100
14 | O=C(Nc1ccc(Sc2nc3ccccc3s2)cc1)c1cccc(Br)c1 [Compound 21, N-(4-(Benzo[d]thiazol-2-ylthio)phenyl)-3-bromobenzamide] |  |  |  |  |  |  |  | > 100 | > 100
15 | O=C(Nc1cccc(Cl)c1)c1cc(Br)cc(Br)c1 [Compound 23, 3,5-Dibromo-N-(3-chlorophenyl)benzamide] |  |  | >2 |  | >2 |  |  | > 100 | > 100
